# pKi: −log10 of the molar value.
# Columns and labels:
# Type in all cases: biochemical
# [1] = target: T1, human cathepsin B (Homo sapiens, UniProt P07858); assay: Cathepsin B peptidase activity assay (Ki); details: read-out: Ki, inhibitors of cathepsin B
# T1 construct: purchased CN Biosciences
# Protocol: Unless otherwise stated, all general chemicals and biochemicals were purchased from either the Sigma Chemical Company, Poole, Dorset, U.K or from Fisher Scientific UK, Loughborough, Leicestershire, U.K. Absorbance assays were carried out in flat-bottomed 96-well plates (Spectra; Greiner Bio-One Ltd., Stonehouse, Gloucestershire, U.K.) using a SpectraMax PLUS384 plate reader (Molecular Devices, Crawley, U.K.). […] Fluorescence assays were monitored using a SpectraMax Gemini fluorescence plate reader (Molecular Devices). For substrates employing either a 7-amino-4-methylcoumarin (AMC) or a 7-amino-4-trifluoromethylcoumarin (AFC) fluorophore, assays were monitored at an excitation wavelength of 365 nm and an emission wavelength of 450 nm and the fluorescence plate reader calibrated with AMC. For substrates employing a 3-amino-benzoyl (Abz) fluorophore, assays were monitored at an excitation wavelength of 310 nm and an emission wavelength of 445 nm; the fluorescence plate reader calibrated with 3-amino-benzamide (Fluka). Unless otherwise indicated, all the peptidase substrates were purchased from Bachem UK, St Helens, Merseyside, UK. […] Hydroxyethylpiperazine ethanesulfonate (HEPES), tris-hydroxylmethyl aminomethane (tris) base, bis-tris-propane and all the biological detergents (e.g. CHAPS, zwittergents, etc.) were purchased from CN Biosciences UK, Beeston, Nottinghamshire, U.K. Glycerol was purchased from Amersham Pharmacia Biotech, Little Chalfont, Buckinghamshire, U.K. Stock solutions of substrate or inhibitor were made up to 10 mM in 100% dimethylsulfoxide (DMSO) (Rathburns, Glasgow, U.K.) and diluted as appropriately required. In all cases the DMSO concentration in the assays was maintained at less than 1% (vol./vol.).
# Enzyme was added as required to initiate the reaction and the activity, as judged by the change in fluorescence upon conversion of substrate to product, was monitored over time. All assays were carried out at 25±1° C.
# Bovine cathepsin S, human cathepsin L, human cathepsin H and human cathepsin B were obtained from CN Biosciences. Recombinant human cathepsin S, human cathepsin K and human cathepsin X were obtained from Dr. Boris Turk (Josef Stefan Institute, Ljubljana, Slovenia). Unless otherwise stated, all peptidase activity assays were carried out in 10 mM bis-tris-propane (BTP), pH 6.5 containing 1 mM EDTA, 5 mM 2-mercaptoethanol and 1 mM CaCl2.
# The apparent inhibition constant (Ki) for each compound was determined on the basis that inhibition was reversible and occurred by a pure-competitive mechanism. […] [formula]
# [formula] Ki^app=Ki(1+[So]/KM^app) (4)
# Curves were fitted by non-linear regression analysis (Prism) using a fixed value for the enzyme concentration.
# [2] = target: T2, human cathepsin L (Homo sapiens, UniProt P07711); assay: Cathepsin L peptidase activity assay (Ki); details: read-out: Ki, inhibitors of cathepsin L
# T2 construct: purchased CN Biosciences
# Protocol: Unless otherwise stated, all general chemicals and biochemicals were purchased from either the Sigma Chemical Company, Poole, Dorset, U.K or from Fisher Scientific UK, Loughborough, Leicestershire, U.K. Absorbance assays were carried out in flat-bottomed 96-well plates (Spectra; Greiner Bio-One Ltd., Stonehouse, Gloucestershire, U.K.) using a SpectraMax PLUS384 plate reader (Molecular Devices, Crawley, U.K.). Fluorescence high throughput assays were carried out in either 384-well microtitre plates (Corning Costar 3705 plates, Fisher Scientific) or 96-well ‘U’ bottomed Microfluor W1 microtitre plates (Thermo Labsystems, Ashford, Middlesex, U.K.). Fluorescence assays were monitored using a SpectraMax Gemini fluorescence plate reader (Molecular Devices). For substrates employing either a 7-amino-4-methylcoumarin (AMC) or a 7-amino-4-trifluoromethylcoumarin (AFC) fluorophore, assays were monitored at an excitation wavelength of 365 nm and an emission wavelength of 450 nm and the fluorescence plate reader calibrated with AMC. For substrates employing a 3-amino-benzoyl (Abz) fluorophore, assays were monitored at an excitation wavelength of 310 nm and an emission wavelength of 445 nm; the fluorescence plate reader calibrated with 3-amino-benzamide (Fluka). Unless otherwise indicated, all the peptidase substrates were purchased from Bachem UK, St Helens, Merseyside, UK. Substrates utilizing fluorescence resonance energy transfer methodology (i.e. FRET-based substrates) were synthesized at Incenta Limited using published methods (Atherton & Sheppard, Solid Phase Peptide Synthesis, IRL Press, Oxford, U.K, 1989) and employed Abz (2-aminobenzoyl) as the fluorescence donor and 3-nitro-tyrosine [Tyr(NO2)] as the fluorescence quencher (Meldal, M. and Breddam, K., Anal. Biochem, 195, 141-147, 1991). Hydroxyethylpiperazine ethanesulfonate (HEPES), tris-hydroxylmethyl aminomethane (tris) base, bis-tris-propane and all the biological detergents (e.g. CHAPS, zwittergents, etc.) were purchased from CN Biosciences UK, Beeston, Nottinghamshire, U.K. Glycerol was purchased from Amersham Pharmacia Biotech, Little Chalfont, Buckinghamshire, U.K. Stock solutions of substrate or inhibitor were made up to 10 mM in 100% dimethylsulfoxide (DMSO) (Rathburns, Glasgow, U.K.) and diluted as appropriately required. In all cases the DMSO concentration in the assays was maintained at less than 1% (vol./vol.).
# Assay protocols were based on literature precedent (Table 4; Barrett, A. J., Rawlings, N. D. and Woessner, J. F., 1998, Handbook of Proteolytic Enzymes, Academic Press, London and references therein) and modified as required to suit local assay protocols. Enzyme was added as required to initiate the reaction and the activity, as judged by the change in fluorescence upon conversion of substrate to product, was monitored over time. All assays were carried out at 25±1° C.
# Bovine cathepsin S, human cathepsin L, human cathepsin H and human cathepsin B were obtained from CN Biosciences. Recombinant human cathepsin S, human cathepsin K and human cathepsin X were obtained from Dr. Boris Turk (Josef Stefan Institute, Ljubljana, Slovenia). Unless otherwise stated, all peptidase activity assays were carried out in 10 mM bis-tris-propane (BTP), pH 6.5 containing 1 mM EDTA, 5 mM 2-mercaptoethanol and 1 mM CaCl2. Human cathepsin H activity assays were carried out in 10 mM BTP pH 6.5, 142 mM NaCl2, 1 mM CaCl2, 1 mM EDTA, 1 mM DTT, 0.035 mM Zwittergent 3-16. Human cathepsin K assays were carried out in 100 mM sodium acetate; pH 5.5 containing 20 mM L-cysteine and 1 mM EDTA (Bossard, M. J., et. al., J. Biol. Chem., 21, 12517-12524, 1996). Human cathepsin X assays were carried out in 100 mM sodium acetate; pH 5.5 containing 20 mM L-cysteine; 0.05% (w/v) Brij 35 and 1 mM EDTA (Santamaria, I., et. al., J. Biol. Chem., 273, 16816-16823, 1998; Klemencic, J, et al., Eur. J. Biochem., 267, 5404-5412, 2000). […]
# [3] = target: T3, CPB2.8ΔCTE (Leishmania mexicana, UniProt P36400); assay: Leishmania mexicana cysteine protease B (CPB) peptidase activity assay (Ki); details: Ki, inhibitors of Leismania mexicana CPB protease
# T3 construct: Wild-type recombinant CPB without the C-terminal extention (i.e. CPB2.8ΔCTE); Dr. Jeremy Mottram (Wellcome Centre for Molecular Parasitology, University of Glasgow)
# Method in brief: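 Recombinant CPB2.8ΔCTE (0.25 nM) was assayed in 100 mM sodium acetate pH 5.5 with 1 mM EDTA, 200 mM NaCl and 10 mM DTT at 25 °C, DMSO <1%, enzyme added to start. Rates were taken from continuous fluorescence slopes; apparent Ki was fitted assuming reversible, pure-competitive inhibition.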
# [4] = target: Wild-type cruzipain (Trypanosoma cruzi, UniProt P25779); assay: Trypanosoma cruzi cruzipain peptidase activity assay (Ki); details: read-out: Ki, inhibitors of cruzain and cruzipains
# Method in brief: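 Native cruzipain from T. cruzi Dm28 epimastigotes, 2.5 nM, in 100 mM sodium phosphate pH 6.75 with 1 mM EDTA and 10 mM L-cysteine, 25 °C, DMSO <1%. Rates taken from continuous fluorogenic substrate read; Ki by regression assuming reversible pure-competitive inhibition.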
# T2 sequence (P07711 114-333): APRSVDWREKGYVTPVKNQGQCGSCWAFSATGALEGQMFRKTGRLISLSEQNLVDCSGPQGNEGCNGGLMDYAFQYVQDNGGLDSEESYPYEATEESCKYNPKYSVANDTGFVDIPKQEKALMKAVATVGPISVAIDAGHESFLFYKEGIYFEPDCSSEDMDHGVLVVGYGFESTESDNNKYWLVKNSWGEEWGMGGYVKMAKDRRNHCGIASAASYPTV
# T3 sequence (P36400 126-343, stated change not applied): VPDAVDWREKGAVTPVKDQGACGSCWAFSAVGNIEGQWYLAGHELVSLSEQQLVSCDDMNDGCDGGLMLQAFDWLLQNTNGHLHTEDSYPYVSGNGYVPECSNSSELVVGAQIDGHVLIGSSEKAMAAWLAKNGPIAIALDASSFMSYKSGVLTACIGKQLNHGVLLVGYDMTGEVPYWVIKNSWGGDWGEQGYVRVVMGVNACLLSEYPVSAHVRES
# Sequence of Wild-type cruzipain (P25779 whole entry): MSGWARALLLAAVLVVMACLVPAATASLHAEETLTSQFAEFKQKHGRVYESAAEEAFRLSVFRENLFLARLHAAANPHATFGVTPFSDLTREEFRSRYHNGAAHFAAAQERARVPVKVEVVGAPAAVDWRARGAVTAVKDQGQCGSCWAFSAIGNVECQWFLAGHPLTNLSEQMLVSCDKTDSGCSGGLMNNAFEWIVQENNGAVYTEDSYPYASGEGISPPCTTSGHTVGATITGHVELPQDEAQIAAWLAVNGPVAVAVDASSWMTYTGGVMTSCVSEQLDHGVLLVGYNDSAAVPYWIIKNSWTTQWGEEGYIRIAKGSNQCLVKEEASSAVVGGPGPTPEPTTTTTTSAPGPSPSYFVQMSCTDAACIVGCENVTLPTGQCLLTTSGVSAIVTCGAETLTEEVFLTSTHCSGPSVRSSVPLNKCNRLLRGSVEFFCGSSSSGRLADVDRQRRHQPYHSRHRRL
SMILES,pKi [1],pKi [2],pKi [3],pKi [4]
"CC(C)C[C@H](NC(=O)c1ccc(Oc2ccccc2)cc1)C(=O)N1CC[C@@H]2[C@H]1C(=O)CN2C(=O)c1cccc(S(C)(=O)=O)c1 [Example 41, (3aR,6aS)-N-{(1S)-1-[4-(3-Methanesulfonyl-benzoyl)-6-oxo-hexahydro-pyrrolo[3,2-b]pyrrole-1-carbonyl]-3-methyl-butyl}-4-phenoxy-benzamide]",> 5.30,–,–,–
"CC(=O)N1CCC[C@H]1C(=O)N1CC(=O)[C@@H]2[C@H]1CCN2C(=O)[C@H](CC(C)C)NC(=O)c1ccc(N(C)C)cc1 [Example 216, (3aR,6aS)-N-{(1S)-1-[4-((2S)-1-Acetyl-pyrrolidine-2-carbonyl)-6-oxo-hexahydro-pyrrolo[3,2-b]pyrrole-1-carbonyl]-3-methyl-butyl}-4-dimethylamino-benzamide]",–,> 5.30,> 5.30,> 5.30
"CC(C)C[C@H](NC(=O)c1cccc(CN)c1)C(=O)N1CC[C@@H]2[C@H]1C(=O)CN2C(=O)[C@@H](N)CC(C)C [Example 246, (3aR,6aS)-3-Aminomethyl-N-{(1S)-1-[4-((2S)-2-amino-4-methyl-pentanoyl)-6-oxo-hexahydro-pyrrolo[3,2-b]pyrrole-1-carbonyl)-3-methyl-butyl}-benzamide]",–,> 5.30,> 5.30,> 5.30
"O=C(N[C@@H](CSCc1ccccc1)C(=O)N1CC[C@@H]2[C@H]1C(=O)CN2C(=O)c1ccccc1)c1cc2ccccc2s1 [Example 252, (3aR,6aS)-Benzo[b]thiophene-2-carboxylic acid [(1R)-2-(4-benzoyl-6-oxo-hexahydro-pyrrolo[3,2-b]pyrrol-1-yl)-1-benzylsulfanylmethyl-2-oxo-ethyl]-amide]",> 5.30,–,–,–
"O=C(N[C@@H](CSCc1ccccc1)C(=O)N1CC[C@@H]2[C@H]1C(=O)CN2C(=O)c1ccccc1)c1csc2ccccc12 [Example 253, (3aR,6aS)-Benzo[b]thiophene-3-carboxylic acid [(1R)-2-(4-benzoyl-6-oxo-hexahydro-pyrrolo[3,2-b]pyrrole-1-yl)-1-benzylsulfanylmethyl-2-oxo-ethyl]-amide]",> 5.30,–,–,–
"O=C(N[C@@H](CSCc1ccccc1)C(=O)N1CC[C@@H]2[C@H]1C(=O)CN2C(=O)c1ccc(O)cc1)c1ccsc1 [Example 267, (3aR,6aS)-Thiophene-3-carboxylic acid {(1R)-1-benzylsulfanylmethyl-2-[4-(4-hydroxy-benzoyl)-6-oxo-hexahydro-pyrrolo[3,2-b]pyrrol-1-yl]-2-oxo-ethyl}-amide]",> 5.30,–,–,–
"CC(=O)N[C@@H](CC(C)C)C(=O)N1CC(=O)[C@@H]2[C@H]1CCN2C(=O)[C@H](CC1CCCCC1)NC(=O)c1ccco1 [Example 295, (3aR,6aS)-Furan-2-carboxylic acid {(1S)-2-[4-((2S)-2-acetylamino-4-methyl-pentanoyl)-6-oxo-hexahydro-pyrrolo[3,2-b]pyrrole-1-yl]-1-cyclohexylmethyl-2-oxo-ethyl}-amide]",–,> 5.30,> 5.30,> 5.30

# Second part, led by results:
pKi [1],SMILES,pKi [2],pKi [3],pKi [4]
> 5.30,"CC(C)C[C@H](NC(=O)c1ccc(Oc2ccccc2)cc1)C(=O)N1CC[C@@H]2[C@H]1C(=O)CN2C(=O)c1ccccc1S(C)(=O)=O [Example 40, (3aR,6aS)-N-{(1S)-1-[4-(2-Methanesulfonyl-benzoyl)-6-oxo-hexahydro-pyrrolo[3,2-b]pyrrole-1-carbonyl]-3-methyl-butyl}-4-phenoxy-benzamide]",–,–,–
> 5.30,"O=C(N[C@@H](CSCc1ccccc1)C(=O)N1CC[C@@H]2[C@H]1C(=O)CN2C(=O)c1cccc([N+](=O)[O-])c1)c1ccsc1 [Example 264, (3aR,6aS)-Thiophene-3-carboxylic acid {(1R)-1-benzylsulfanylmethyl-2-[4-(3-nitro-benzoyl)-6-oxo-hexahydro-pyrrolo[3,2-b]pyrrole-1-yl]-2-oxo-ethyl}-amide]",–,–,–
> 5.30,"O=C(N[C@@H](CSCc1ccccc1)C(=O)N1CC[C@@H]2[C@H]1C(=O)CN2C(=O)C12CC3CC(CC1C3)C2)c1ccsc1 [Example 266, (3aR,6aS)-Thiophene-3-carboxylic acid {(1R)-1-benzylsulfanylmethyl-2-[4-(hexahydro-2,5-methano-pentalene-3a-carbonyl)-6-oxo-hexahydro-pyrrolo[3,2-b]pyrrole-1-yl]-2-oxo-ethyl}-amide]",–,–,–
> 5.30,"CS(=O)(=O)c1ccccc1C(=O)N1CC(=O)[C@@H]2[C@H]1CCN2C(=O)[C@H](CC1CCCCC1)NC(=O)C(c1ccccc1)c1ccccc1 [Example 279, (3aR,6aS)-N-{(1S)-1-Cyclohexylmethyl-2-[4-(2-methanesulfonyl-benzoyl)-6-oxo-hexahydro-pyrrolo[3,2-b]pyrrole-1-yl]-2-oxo-ethyl}-2,2-diphenyl-acetamide]",–,–,–
